In patent EP0429187A1, “Enhanced bioavailability adsorbates” (ELAN C[…].L.C., priority 1989, dated 1991):

Tests used:
[1] = Mean urinary recoveries for DHEA base in the comparison study; assay type: in vivo; details: human volunteers
[2] = Comparison of enhanced bioavailability DHEA adsorbate with micronised DHEA: plasma levels (AUC) of DHEA base and sulphate; assay type: in vivo; details: reference AUC arbitrarily denoted as 100%, 500 mg oral every 8 hours over 24 hours, 9 healthy male human volunteers, read-out: F = absolute bioavailability (DHEA Base)
Method: In this study an enhanced bioavailability DHEA adsorbate powder of the type prepared in Example 2 was compared with standard micronised DHEA in capsule form. For the formulation in accordance with the invention (hereinafter referred to as 'test') the dose administered was 500 mg of DHEA as adsorbate in powder-sachet form. The standard micronised DHEA (hereinafter referred to as 'reference') was administered as 2 x 250 mg capsules. […] In the study, the test substance was compared in a group of 9 healthy male human volunteers against the reference substance. The dosage regime was 500 mg every 8 hours over a 24 hour period. Plasma samples were taken in each case at intervals up to and including 24 hours post initial dosing and the samples were assayed for DHEA (base and sulphate) levels. DHEA sulphate levels were measured because a substantial portion of the DHEA is converted to the sulphate form in vivo. For the reference substance, the area under the curve (AUC) value are arbitrarily denoted as 100%. The AUC value was then compared and assigned an absolute bioavailability value (%) using the 100% as baseline.

SMILES: C[C@]12CC[C@H](O)CC1=CC[C@@H]1[C@@H]2CC[C@]2(C)C(=O)CC[C@@H]12 [REFERENCE, dehydroepiandrosterone]
- Mean Urinary Recoveries for DHEA Base ([1]; Day 0): 22.55 ± 8.50 mg/24 h.
- Mean Urinary Recoveries for DHEA Base ([1]; Day 1): 460.67 ± 179.87 mg/24 h.
- Mean Urinary Recoveries for DHEA Base ([1]; Day 2): 799.55 ± 191.90 mg/24 h.
- Mean Urinary Recoveries for DHEA Base ([1]; Day 3): 745.88 ± 179.92 mg/24 h.
- Mean Urinary Recoveries for DHEA Base ([1]; Day 4): 694.33 ± 162.07 mg/24 h.
- Mean Urinary Recoveries for DHEA Base ([1]; Day 5): 800.22 ± 156.19 mg/24 h.
- bioavailability [2]: 100%
